Measured values from ChEMBL document CHEMBL1629546 (Antimicrob Agents Chemother, 2008).
Values after ≈ are worked out from the molar mass of the structure shown. Active and inactive are the calls of the source. No cut-off for these calls is given here.

Assays:
[1] = tested on: Bacillus anthracis; conditions: in vivo
[2] = tested on: Bacillus anthracis; assay: Antimicrobial activity against Bacillus anthracis infected in in vitro hollow fiber PK/PD model assessed as bacterial killing at 600 mg administered once every 24 hrs for 15 days; type: functional, organism-based
[3] = tested on: Bacillus anthracis; conditions: in vivo, 24 h
[4] = tested on: Bacillus anthracis; assay: Antimicrobial activity against Bacillus anthracis infected in in vitro hollow fiber PK/PD model assessed as reduction in bacterial burden at 700 mg administered once every 24 hrs; type: functional, organism-based
[5] = tested on: Bacillus anthracis; assay: Antimicrobial activity against Bacillus anthracis infected in in vitro hollow fiber PK/PD model assessed as prevention of bacterial regrowth at 700 mg administered once every 24 hrs; type: functional, organism-based
[6] = tested on: Bacillus anthracis; conditions: in vivo, 24 h; remark: listed apart in the source
[7] = tested on: Bacillus anthracis; assay: Antimicrobial activity against Bacillus anthracis infected in in vitro hollow fiber PK/PD model assessed as cell killing at 400 mg administered once every 24 hrs; type: functional, organism-based
[8] = tested on: Bacillus anthracis; conditions: in vivo, 24 h; remark: listed apart in the source
[9] = tested on: Bacillus anthracis; conditions: in vivo, 24 h; remark: listed apart in the source
[10] = tested on: Bacillus anthracis; assay: Antimicrobial activity against Bacillus anthracis infected in in vitro hollow fiber PK/PD model assessed as cell killing at 800 mg administered once every 24 hrs; type: functional, organism-based
[11] = tested on: Bacillus anthracis; assay: Antimicrobial activity against Bacillus anthracis infected in in vitro hollow fiber PK/PD model assessed as bacterial killing at 800 mg administered once every 24 hrs; type: functional, organism-based
[12] = tested on: Bacillus anthracis; conditions: in vivo; remark: listed apart in the source
[13] = tested on: Bacillus anthracis; conditions: in vivo, 24 h; remark: listed apart in the source
[14] = tested on: Bacillus anthracis; assay: Antimicrobial activity against Bacillus anthracis infected in in vitro hollow fiber PK/PD model assessed as bacterial regrowth at 500 mg administered once every 24 hrs; type: functional, organism-based
[15] = tested on: Bacillus anthracis; assay: Antimicrobial activity against Bacillus anthracis infected in in vitro hollow fiber PK/PD model assessed as bacterial regrowth at 200 mg administered once every 24 hrs; type: functional, organism-based
[16] = tested on: Bacillus anthracis; assay: Antimicrobial activity against Bacillus anthracis infected in in vitro hollow fiber PK/PD model assessed as bacterial regrowth at 400 mg administered once every 24 hrs; type: functional, organism-based
[17] = tested on: Bacillus anthracis; conditions: in vivo; remark: listed apart in the source
[18] = tested on: Bacillus anthracis; conditions: in vivo; remark: listed apart in the source
[19] = tested on: Bacillus anthracis; conditions: in vivo, 24 h; remark: listed apart in the source
[20] = tested on: Bacillus anthracis; conditions: in vivo, 24 h; remark: listed apart in the source
[21] = tested on: Bacillus anthracis; conditions: in vivo, 24 h; remark: listed apart in the source
[22] = tested on: Bacillus anthracis; conditions: in vivo, 24 h; remark: listed apart in the source
[23] = tested on: Bacillus anthracis; conditions: in vivo, 24 h; remark: listed apart in the source
[24] = tested on: Bacillus anthracis; assay: Antimicrobial activity against Bacillus anthracis infected in in vitro hollow fiber PK/PD model assessed as cell killing at 300 mg administered once every 24 hrs; type: functional, organism-based
[25] = tested on: Bacillus anthracis; assay: Antimicrobial activity against Bacillus anthracis infected in in vitro hollow fiber PK/PD model assessed as cell killing at 800 mg administered as 4 divided doses every 6 hrs; type: functional, organism-based
[26] = tested on: Bacillus anthracis; assay: Antimicrobial activity against Bacillus anthracis infected in in vitro hollow fiber PK/PD model assessed as bacterial regrowth at 600 mg administered once every 24 hrs; type: functional, organism-based
[27] = tested on: Bacillus anthracis; conditions: in vivo; remark: listed apart in the source
[28] = tested on: Bacillus anthracis; assay: Antimicrobial activity against Bacillus anthracis infected in in vitro hollow fiber PK/PD model assessed as cell killing at 200 mg administered once every 24 hrs; type: functional, organism-based
[29] = tested on: Bacillus anthracis; conditions: in vivo; remark: listed apart in the source
[30] = tested on: Bacillus anthracis; conditions: in vivo; remark: listed apart in the source
[31] = tested on: Bacillus anthracis; conditions: in vivo, 24 h; remark: listed apart in the source
[32] = tested on: Bacillus anthracis; assay: Antimicrobial activity against Bacillus anthracis infected in in vitro hollow fiber PK/PD model assessed as cell killing at 800 mg administered as 2 divided doses every 12 hrs; type: functional, organism-based
[33] = tested on: Bacillus anthracis; assay: Antimicrobial activity against Bacillus anthracis infected in in vitro hollow fiber PK/PD model assessed as prevention of bacterial regrowth at 800 mg administered once every 24 hrs; type: functional, organism-based
[34] = tested on: Bacillus anthracis; assay: Antimicrobial activity against Bacillus anthracis infected in in vitro hollow fiber PK/PD model assessed as bacterial regrowth at 300 mg administered once every 24 hrs; type: functional, organism-based
[35] = tested on: Bacillus anthracis; conditions: in vivo; remark: listed apart in the source
[36] = tested on: Bacillus anthracis; conditions: in vivo; remark: listed apart in the source
[37] = tested on: Bacillus anthracis; assay: Antimicrobial activity against Bacillus anthracis infected in in vitro hollow fiber PK/PD model assessed as bacterial regrowth at 100 mg administered once every 24 hrs; type: functional, organism-based
[38] = tested on: Bacillus anthracis; conditions: in vivo; remark: listed apart in the source
[39] = tested on: Bacillus anthracis; assay: Antimicrobial activity against wild-type Bacillus anthracis; type: functional
[40] = tested on: Bacillus anthracis; conditions: in vivo, 24 h; remark: listed apart in the source
[41] = tested on: Bacillus anthracis; conditions: in vivo, 24 h; remark: listed apart in the source
[42] = tested on: Bacillus anthracis; assay: Antimicrobial activity against Bacillus anthracis infected in in vitro hollow fiber PK/PD model assessed as bacterial killing at 500 mg administered once every 24 hrs for 15 days; type: functional, organism-based

Structure (SMILES): O=C(O)c1cn(C2CC2)c2cc(N3CCNCC3)c(F)cc2c1=O [CIPROFLOXACIN]
- fAUC [1]: 22.356 mg·h/L

Structure (SMILES): CC(=O)NC[C@H]1CN(c2ccc(N3CCOCC3)c(F)c2)C(=O)O1 [LINEZOLID]
- Activity [2]: Active
- fAUC [3]: 71.422 mg·h/L
- Activity [4]: Active
- Activity [5]: Active
- fAUC [6]: 22.498 mg·h/L
- Activity [7]: Active
- fAUC [8]: 91.106 mg·h/L
- fAUC [9]: 33.746 mg·h/L
- Activity [10]: Active
- Activity [11]: Active
- fAUC [12]: 91.284 mg·h/L
- fAUC [13]: 91.106 mg·h/L
- Activity [14]: Active
- Activity [15]: Active
- Activity [16]: Active
- fAUC [17]: 91.216 mg·h/L
- fAUC [18]: 71.54 mg·h/L
- fAUC [19]: 56.283 mg·h/L
- fAUC [20]: 78.508 mg·h/L
- fAUC [21]: 45.553 mg·h/L
- fAUC [1]: 90.081 mg·h/L
- fAUC [22]: 11.249 mg·h/L
- fAUC [23]: 78.508 mg·h/L
- Activity [24]: Active
- Activity [25]: Active
- Activity [26]: Active
- fAUC [27]: 115.702 mg·h/L
- Activity [28]: Active
- fAUC [29]: 71.3 mg·h/L
- fAUC [30]: 56.245 mg·h/L
- fAUC [31]: 56.283 mg·h/L
- Activity [32]: Active
- Activity [33]: Active
- Activity [34]: Active
- fAUC [35]: 36.244 mg·h/L
- fAUC [36]: 74.371 mg·h/L
- Activity [37]: Active
- fAUC [38]: 56.258 mg·h/L
- MIC [39]: 3 µg/mL (≈ 8.89 µM)
- fAUC [40]: 90.106 mg·h/L
- fAUC [41]: 71.422 mg·h/L
- Activity [42]: Active
